Laboratory results reported in PubChem BioAssay AID2821 (Broad Institute, 2010).
Activity calls are given as the source filed them.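 How the source made its calls: active means IC50 no more than a set number of log units above the top dose tested; inconclusive means flat fit with 30 to 70% inhibition, or a poor fit; inactive means IC50 beyond that set limit.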

Biological target: Serine/threonine-protein kinase 33 (Homo sapiens) (UniProt Q9BYT3)
Assay: STK33 kinase inhibitors, dose response, biochemical, luminescence, cell-free, retest (AID 2821)
Settings: purified STK33, MBP substrate, ADP-Glo luminescence

Serine/threonine-protein kinase 33 (Homo sapiens), sequence (Q9BYT3 whole entry, looked up): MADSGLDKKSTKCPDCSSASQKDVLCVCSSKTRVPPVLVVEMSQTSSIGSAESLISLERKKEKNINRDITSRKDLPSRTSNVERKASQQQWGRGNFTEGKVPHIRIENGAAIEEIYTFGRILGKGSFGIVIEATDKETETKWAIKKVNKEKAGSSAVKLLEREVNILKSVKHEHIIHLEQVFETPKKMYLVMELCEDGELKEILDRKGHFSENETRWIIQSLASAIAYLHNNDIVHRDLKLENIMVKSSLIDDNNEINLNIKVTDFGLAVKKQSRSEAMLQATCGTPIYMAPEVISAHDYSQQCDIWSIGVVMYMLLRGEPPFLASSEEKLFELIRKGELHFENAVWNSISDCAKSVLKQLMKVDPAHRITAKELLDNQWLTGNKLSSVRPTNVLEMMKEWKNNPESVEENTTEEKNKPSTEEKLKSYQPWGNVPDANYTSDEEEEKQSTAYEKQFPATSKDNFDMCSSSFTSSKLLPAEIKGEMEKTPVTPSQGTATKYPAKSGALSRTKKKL

| IC50 | Compound |
| --- | --- |
| 5.22 µM | COc1ccc(N=Cc2c(O)[nH]c3ccccc23)cc1OC |
| 0.71 µM | COc1cc(/C=C/C(=O)/C=C(O)/C=C/c2ccc(O)c(OC)c2)ccc1O |
| 11.3 µM | Oc1[nH]c2ccccc2c1C=Nc1ccc2c(c1)OCO2 |
| 11.8 µM | COC(=O)c1cccc2c1-c1ccccc1/C2=N/O |
| 10.3 µM | O=C1C(c2ccncc2)=C(O)c2ccccc21 |
| 6.22 µM | O=c1c(/C=N/O)c(Nc2ccccc2)nc2ccccn12 |
| > 12 µM (inactive) | CCn1c2ccc(/C(C)=N\O)cc2c2cc(/C(C)=N\O)ccc21 |
| 8.49 µM | N#C/C(=C(/O)c1ccco1)c1nc2ccccc2[nH]1 |
| 11.5 µM | Oc1ccc(/C=C/c2ccnc3ccccc23)cc1 |
| 4.93 µM | COc1cc(N=Cc2c(O)[nH]c3ccccc23)cc(OC)c1OC |
| 3.05 µM | Oc1ccc(/C=N/Nc2ccnc3cc(Cl)ccc23)cc1O |
| > 12 µM (inactive) | COc1cc(C2c3sc(=O)[nH]c3SC3C(=O)N(c4ccc(C)cc4)C(=O)C32)ccc1O (stereo not given) |
| 4.91 µM | NS(=O)(=O)c1ccc2c(c1)C(=NO)c1cc(S(N)(=O)=O)ccc1-2 |
| 2.48 µM | CCCn1c2ccc(/C(C)=N\O)cc2c2cc(/C(C)=N/O)ccc21 |
| 1.75 µM | COc1cc(/C=C/C(O)=C/C(=O)/C=C/c2ccc(O)cc2)ccc1O |
